Marks after values point to notes of the source that are not given here.
Key:
[1] = tested on: S180 sarcoma cells; test: Growth of KM mice-transplanted S180 sarcoma cells in vivo; set-up: unit not given here; conditions: Table 12; for Sarcoma volume: V=(1/6)πABC, saline 1.20 ± 0.28; for Sarcoma weight: saline 1.87 ± 0.52
Procedure: S180 sarcoma cells were transplanted intraperitoneally into KM mice for 6-8 days and the ascites aseptically collected. The cell concentration was adjusted to 1×10^7 per ml with 10% FBS RPMI-1640, and 0.2 ml cell suspension was injected through the armpit into each KM mice for developing the sarcoma bearing mice model. […] Intraperitoneal injection of test substances started on the day immediately after tumor transplantation and continued once per day for 20 consecutive days.
On the day after the last test substance administration, the sarcomas were removed from the mice and weighed. The diameters of each sarcoma on the three planes (A, B, C) were measured by a vernier caliper. The volume of the sarcoma was calculated by the formula: V=(⅙)πABC.

[2] = tested on: mice T-lymphocyte; test: Mice T-lymphocyte transformation in vivo (i.p. dosing 20 days, spleen cells + ConA, MTT, stimulation index); set-up: species or system BALB/c mice; conditions: for Effect on mice T-lymphocyte transformation in vivo: at suitable dosages, vs saline control P<0.05
Procedure: Animals were randomized into two peptide groups (200 μg/kg/day and 50 μg/kg/day), Cyclosporine A group (10 mg/kg/day), and saline group (0.5 ml/day). Each group contained 10 mice, in which half were female and half were male. All test substances were dissolved in 0.5 ml saline and administered intraperitoneally once per day for 20 days. T-lymphocyte transformation and NK cell activity were examined on the day immediately following the last injection. The day after the last test substance administration, the mice were sacrificed by cervical dislocation. The spleens were isolated aseptically and manually dispersed in 10% FBS RPMI-1640 solution using an injection needle. The dispersed cell suspension was further sieved through a 100 gauge 150 μm diameter stainless steel sieve and adjusted to 4×10^6/ml. The cell suspensions were inoculated onto a 96 wells cell culture plate, 100 μl/well with the following design. Assay wells: 100 μl cell suspension+100 μl ConA Control wells: 100 μl cell suspension+100 μl RPMI-1640 Four assay and four control wells were set up for each animal. The plates were incubated at 37° C., 5% CO2 for 68 hours. MTT was then added and the plates read at OD 570 nm referenced at 630 nm with ELISA reader. Stimulation Index SI (%)=(assay well OD/control well OD)×100%.

[3] = tested on: mice T-lymphocyte; test: Mice T-lymphocyte transformation induced by ConA in vitro (spleen cells, MTT); type: cell-based, BALB/c mice; conditions: for OD: Table 2, ConA 5 μg/ml, 68 hrs
Procedure: The spleens from healthy mice were isolated aseptically and manually dispersed in 10% FBS RPMI-1640 solution using an injection needle. The dispersed cell suspension was further sieved through a 100-gauge 150 μm diameter stainless steel sieve. The spleen cell suspension was adjusted to a density of 4×10^6/ml and was aliquoted onto 96-well cell culture plates at 100 μl/well. Peptides were dissolved in plain RPMI-1640. The design of the groupings was as given below.
Peptide group: 100 μl working peptide solution+75 μl spleen cell suspension+25 μl ConA working solution.
ConA control group: 100 μl RPMI-1640+75 μl spleen cell suspension+25 μl ConA working solution.
Negative control group: 125 μl RPMI-1640+75 μl spleen cell suspension.
The final concentration of ConA in the well was 5 μg/ml. The final concentrations of peptides in the well were 80 μg/ml, 16 μg/ml, 3.2 μg/ml, 0.64 μg/ml, and 0.128 μg/ml. Each peptide group contained three parallel wells, and eight or twelve wells for the control groups. The cells were incubated for 68 hrs at 37° C., 5% CO2. MTT method was used to obtain a reading of OD570 nm of each well referenced at 630 nm on an ELISA reader.

[4] = tested on: mice NK cell; test: Mice NK cell activity in vivo (i.p. dosing 20 days, spleen effector cells vs YAC-1 target cells, MTT); set-up: species or system BALB/c mice; conditions: for Effect on mice NK cell activity in vivo (suppression) / Effect on mice NK cell activity in vivo (enhancement): at suitable dosage, vs saline control P<0.05
Procedure: Animals were randomized into two peptide groups (200 μg/kg/day and 50 μg/kg/day), Cyclosporine A group (10 mg/kg/day), and saline group (0.5 ml/day). Each group contained 10 mice, in which half were female and half were male. All test substances were dissolved in 0.5 ml saline and administered intraperitoneally once per day for 20 days. T-lymphocyte transformation and NK cell activity were examined on the day immediately following the last injection. YAC-1 target cells were brought to log phase and adjusted to a density of 1×10^5/ml. Mice spleen cells prepared in section 2.2.2 above were adjusted to a density of 4×10^6/ml and used as effector cells. The cell suspensions were inoculated onto 96 wells cell culture plates as follows: Effector cell wells: 100 μl spleen cell suspension+100 μl RPMI-1640 Assay wells: 100 μl spleen cell suspension+100 μl YAC-1 cell suspension Target cell wells: 100 μl YAC-1 cell suspension+100 μl RPMI-1640 Three assay wells and three effector cell wells were set up for each animal, and 12 target cell wells were set up per cell culture plate. The plates were incubated at 37° C., 5% CO2 for 4 hours, then MTT was added and the plates were read at OD 570 nm referenced at 630 nm with ELISA reader. NK cell activity (%)=1−[(assay wells OD−effector cell wells OD)/target cell wells OD]×100%

[5] = tested on: Masugi nephritis rabbits; test: Masugi nephritis in rabbits: clearance of sheep anti-rabbit renal cortex IgG antibody (glomerular immunofluorescence); type: in vivo; conditions: 0.1 mg/kg/day i.v. 30 days, saline treatment 8.7 ± 0.9
Procedure: (§1) Before the establishment of a disease state in the rabbits, measurements of serum BUN, creatinine, and urine protein over 24 hours were taken for each rabbit. If there was no abnormality in these measurements, the Masugi nephritis model was established in experimental rabbits by intravenous injection of sheep anti-rabbit renal cortex antiserum via the auricular vein, 0.5 ml per injection, one injection every 30 minutes, for a total of 4 injections per rabbit. The normal healthy (control) rabbit group was injected with saline in the same manner. Intravenous administration of the test substances via the auricular vein was started on the day after the injection of the antiserum, once per day, 1 ml per injection, for 30 consecutive days.
For observation of the effects of peptides on the clearance of sheep anti-rabbit renal cortex IgG antibody from Masugi nephritis rabbits, on the day after the last test substance administration, the rabbits were sacrificed by suffocation and the right kidney was extirpated, freeze-edged and then immunofluorescently stained for the presence of sheep IgG. The fluorescence-positive area of each glomerulus was counted. Thirty glomeruli per rabbit were examined and the average positive area per glomerulus was calculated.
(§2) Statistical significance was determined by the t-test of the SPSS software.

[6] = tested on: Masugi nephritis rabbits; test: Masugi nephritis in rabbits: urine protein; type: in vivo; conditions: 0.1 mg/kg/day i.v.
Procedure: as §1, with “Twenty-two healthy rabbits were randomized into 5 groups: peptide (107.3 μg/kg/day and 58.5 μg/kg/day, 4 rabbits per group), dexamethasone (0.1 mg/kg/day, 4 rabbits), saline treatment (1 ml/day, 7 rabbits), and normal healthy (3 rabbits). Before” for “Before”
Urine was collected from each rabbit over a 24 hour period once per week and the protein content determined by the sulfosalicylic acid method.
as §2

[7] = Table 7, 50 μg/kg/d i.p. 20 days, saline 2.96 ± 0.61
[8] = Table 8, 200 μg/kg/day i.p. 20 days, saline 76.0 ± 4.3
[9] = Table 9, 50 μg/kg/day i.p. 20 days, saline 55.3 ± 6.1

Row | Substance | Sarcoma volume ([1]; 250 μg/kg/day) | Sarcoma weight ([1]; 250 μg/kg/day) | Sarcoma volume ([1]; 500 μg/kg/day) | Sarcoma weight ([1]; 500 μg/kg/day) | Effect on mice T-lymphocyte transformation in vivo [2] | NK cell activity (%) [4, 9] [%] | Effect on mice NK cell activity in vivo (enhancement) [4] | other results
1 | PEEHPTLLTEAPLNPK [CMS-010.04] | 0.17 ± 0.12*^@ | 0.27 ± 0.19*^@ | 0.40 ± 0.28 | 0.62 ± 0.44 | suppress |  |  | SI ([2]; Table 6, 50 μg/kg/day i.p. 20 days, saline 2.24 ± 0.52): 1.56 ± 0.25
2 | VANPK [CMS-010.105] |  |  |  |  |  |  |  | OD ([3]; peptide 0.64 μg/ml, ConA control 0.467 ± 0.043): 0.386 ± 0.008; OD ([3]; peptide 80 μg/ml, MTT OD570 nm ref 630 nm, ConA control 0.467 ± 0.043, negative control 0.134 ± 0.011): 0.407 ± 0.019; Effect on mice T-lymphocyte transformation induced by ConA in vitro ([3]; at suitable concentrations, vs ConA positive control P<0.05): suppress
3 | VAPEEHPTLLTE [CMS-010.12] |  |  |  |  | suppress |  |  | SI [2, 7]: 2.12 ± 0.42
4 | APLNPK [CMS-010.24] | 0.36 ± 0.30 | 0.61 ± 0.39 | 0.62 ± 0.47 | 1.20 ± 0.79 | suppress |  |  | NK cell activity (%) ([4]; Table 8, 50 μg/kg/day i.p. 20 days, saline 76.0 ± 4.3): 56.0 ± 6.0 %; NK cell activity (%) [4, 8]: 69.0 ± 7.4 %; Effect on mice NK cell activity in vivo (suppression) [4]: suppress; SI ([2]; Table 4, 50 μg/kg/day i.p. 20 days, saline 3.63 ± 0.69): 2.40 ± 0.31
5 | Dexamethasone Sodium Phosphate [reference compound] |  |  |  |  |  |  |  | Positive area count/glomerulus [5]: 7.5 ± 1.0; proteinuria Week 0 ([6]; Week 0, saline treatment 11.72 ± 3.18): 9.48 ± 8.46 mg/dL; proteinuria Week 1 ([6]; Week 1, saline treatment 122 ± 91): 29 ± 12 mg/dL; proteinuria Week 2 ([6]; Week 2, saline treatment 160 ± 138): 13.6 ± 6.3 mg/dL; proteinuria Week 3 ([6]; Week 3, saline treatment 145 ± 33): 13.7 ± 3.1 mg/dL; proteinuria Week 4 ([6]; Week 4, saline treatment 157 ± 71): 25 ± 19 mg/dL
6 | PTLLTEAPLNPK [CMS-010.13] | 0.91 ± 0.59 | 0.92 ± 0.56 | 0.38 ± 0.23 | 0.73 ± 0.43 |  | 70.9 ± 17.5 | enhance | 
7 | LNPK [CMS-010.28] |  |  |  |  | suppress |  |  | NK cell activity (%) [4, 8]: 70.3 ± 6.7 %; Effect on mice NK cell activity in vivo (suppression) [4]: suppress; SI ([2]; Table 4, 200 μg/kg/day i.p. 20 days, saline 3.63 ± 0.69): 2.70 ± 0.37
8 | VAPEEH [CMS-010.25] | 0.48 ± 0.37 | 0.65 ± 0.53 | 0.26 ± 0.21*^@ | 0.52 ± 0.38 | suppress |  |  | SI ([2]; Table 5, 200 μg/kg/day i.p. 20 days, saline 3.15 ± 0.83): 2.43 ± 0.69
9 | VAPEEHPTLLT [CMS-010.14] | 0.29 ± 0.21 | 0.44 ± 0.30*^@ | 0.56 ± 0.53 | 0.67 ± 0.70 | suppress | 75.3 ± 9.0 | enhance | NK cell activity (%) ([4]; Table 9, 200 μg/kg/day i.p. 20 days, saline 55.3 ± 6.1): 43.1 ± 13.7 %; SI [2, 7]: 2.12 ± 0.51
10 | HPTLLTEAPLNPK [CMS-010.11] | 0.63 ± 0.40 | 0.64 ± 0.31 | 0.95 ± 0.54 | 1.14 ± 0.74 |  | 63.5 ± 4.7 | enhance | 
